Experiments:
[1] = test system: MDA-MB-436 cells; assay: Anti-proliferative activity assay, BRCA-mutated MDA-MB-436 cells (CCK8); type: cell-based; conditions: Homo sapiens, MDA-MB-436, BRCA-mutated, 72 h + 96 h
From the text: (§1) 2. Anti-Proliferative Activity Assay of Cell:

[2] = test system: DLD-1 cells; assay: Anti-proliferative activity assay, BRCA wild-type DLD-1 cells (CCK8); type: cell-based; conditions: Homo sapiens, 72 h + 96 h
From the text: as §1

[3] = Pharmacokinetic evaluation in Balb/c mice; type: in vivo; conditions: 1 mg/kg orally
Procedure: Pharmacokinetic Evaluation of Compound in Balb/c Mice
(§2) Experimental purpose: To learn pharmacokinetic profiles of compounds.
Experimental scheme: The pharmacokinetic profile of the compound was investigated by means of administering it intravenously (1 mg kg^−1) and orally (1 mg kg^−1) to Balb/c mice.
Sample preparation: About 0.2 mg of the compound was dissolved in 10 μL DMSO, then a sodium chloride injection was added to make a 0.1 mg mL^−1 solution of the compound for administration.
Three mice were administered the compound intravenously (IV) at a dose of 1 mg kg^−1, and the other three were administered the compound orally (PO) at the same dose. […] The plasma concentration of the drug was quantitatively analyzed with the LC-MS/MS method, and pharmacokinetic parameters were calculated, including the time to peak concentration (Cmax), area under the concentration-time curve (AUC(0-t)), half-life (T1/2), clearance (CL), volume of distribution at steady state (Vdss), and bioavailability (F).

[4] = Pharmacokinetic evaluation in SD rat; type: in vivo; conditions: SD rats
Procedure: Pharmacokinetic Evaluation of Compound in SD Rat
as §2
Experimental scheme: The pharmacokinetic profile of the compound was investigated by oral intravenous administration in SD rats.
Experimental procedure: The compound, a small amount of DMSO and a sodium chloride injection were added to prepare the final solution for administration. The compound was orally administered to 6 male SD rats. […] The supernatant was collected and transferred into a sample vial for assay. Range of standard curve: 10-10,000 ng mL^−1.

[5] = test system: breast cancer MDA-MB-436; assay: In-vivo pharmacodynamic study on subcutaneous xenograft tumor model of breast cancer MDA-MB-436; design: species or system human tumor cells in NOD/SCID mice
Procedure: Strain: NOD/SCID; Grade: SPF; Source: Beijing Vitron River Bio-technology Co., Ltd.
The cells were washed 3 times with pre-cooled PBS, centrifuged at 300 g for 10 min, collected, re-suspended in PBS, and counted with a blood cell counting chamber, and the cell concentration was adjusted. After cell collection, the cell suspension was pre-cooled on ice. 100 μL of the cell suspension was administered via subcutaneous injection into the dorsal flank of the mice, and the grouped treatment was started when the tumor volume reached 200-300 mm^3.
Animal assay: all viable experimental animals scheduled for assay; Assay time: All animals were weighed before the modeling for test grouping. After modeling, the mice were weighed once every 2 days, and the weight change of the mice was recorded in real time. Effective criteria: tumor volume (TV), relative tumor volume (RTV) and relative tumor growth rate of subcutaneously implanted tumor model. […] The calculation formula of tumor volume (TV) was: TV (mm^3)=a×b2×0.5, where a and b were the long diameter and short diameter, respectively.
The evaluation index for anti-tumor activity was the relative tumor growth rate T/C (%), and the calculation formula was as follows: […]
Where, TRTV is relative tumor volume of the treatment group; CRTV is relative tumor volume of the negative control group. […] The tumor inhibition rate (%) was calculated by the formula below: […]
All raw data within the facility were collected manually according to the experimental scheme and the relevant guidelines of the research institution, or gathered by using a data acquisition system. Manually collected data can be transcribed into software such as Excel for analysis and reporting. The data from each group were quantitative, and the experimental data for each group of animals in the tables were expressed as mean±standard deviation (Mean±SD). In the figures, the experimental data ware described as mean±standard error of the mean (Mean±SEM). Statistical analysis, including t-tests and survival analysis, was performed by using the software such as EXCEL and GraphPad Prism.
After 24 days of administration, the tumor-bearing mice were anesthetized and euthanized. The tumor tissues were dissected, weighed, and photographed, and the tumor inhibition rate was calculated.

[6] = test system: gastric cancer PDX; assay: In-vivo pharmacodynamic study on PDX gastric cancer mice model; design: species or system patient-derived tumor in mice
Procedure: 7. In-Vivo Pharmacodynamic Study of Compound 6 on PDX Gastric Cancer Mice model
Experimental procedure: Tumor tissues from gastric cancer patients were used to establish a stable passaged tumor-bearing mice model. In this study, tumor fragments from mice that had been stably passaged three times were used for subcutaneous inoculation. Eight groups were divided for the experiment, with 6 mice in each group. The negative control group (Control) received normal saline at 0.2 mL per mice per administration, given orally once per day; the carboplatin control group (Carboplatin, Car) received 20 mg/kg at 0.2 mL per mice per administration, administered via intraperitoneal injection once every 7 days.

[7] = test system: SUM14PT; assay: In-vivo pharmacodynamic study on subcutaneous xenograft tumor model of breast cancer SUM14PT; design: species or system nude mice
Procedure: Experimental procedure: In this study, a mice model was established by subcutaneously inoculating SUM14PT tumor cells. Eight groups were divided for the experiment, with 6 mice in each group. The negative control group (Control) received normal saline at 0.2 mL per mice per administration, given orally once per day; the carboplatin control group (Carboplatin, Car) received 20 mg/kg at 0.2 mL per mice per administration, administered via intraperitoneal injection once every 7 days.

[8] = Body weight in MDA-MB-436 xenograft study; type: in vivo, NOD/SCID mice; conditions: for Body weight X ± SD, End: 24 days
Procedure: Animal assay: all viable experimental animals scheduled for assay; Assay time: All animals were weighed before the modeling for test grouping. After modeling, the mice were weighed once every 2 days, and the weight change of the mice was recorded in real time. Effective criteria: tumor volume (TV), relative tumor volume (RTV) and relative tumor growth rate of subcutaneously implanted tumor model. The long diameter and short diameter of the tumor was measured with vernier calipers every 2 days, and the anti-tumor effects of the tested drug was dynamically observed. The calculation formula of tumor volume (TV) was: TV (mm^3)=a×b2×0.5, where a and b were the long diameter and short diameter, respectively.
Each group consisted of 6 mice, all of which are administered orally once daily. […] After 24 days of administration, the tumor-bearing mice were anesthetized and euthanized. The tumor tissues were dissected, weighed, and photographed, and the tumor inhibition rate was calculated.

[9] = test system: breast cancer MDA-MB-436; assay: Challenge experiment on subcutaneous xenograft tumor model of breast cancer MDA-MB-436 (large-volume tumors)
Procedure: Each group consisted of 5 mice and was administered orally once per day. The body weight of the mice was measured every 2 days, and the length and width of the tumors with a vernier caliper.

[10] = 0.03 mg/kg orally once daily, 24 days
[11] = 0.1 mg/kg orally once daily, 24 days
[12] = 0.3 mg/kg orally once daily, 24 days

[2H]C([2H])([2H])C([2H])([2H])c1cc2ncc(CN3CC=C(c4ccc(C(=O)NC)nc4)CC3)cc2[nH]c1=O [Compound 6, 1′-((7-(ethyl-d5)-6-oxo-5,6-dihydro-1,5-naphthyridin-3-yl)methyl)-N-methyl-1′,2′,3′,6′-tetrahy dro-[3,4′-bipyridine]-6-carboxamide]
IC50 [1]: 0.6 nM
IC50 [2]: > 10000 nM
Cmax, comparison with AZD5305 and compounds 1, 2, 3, 15, 21 [3]: superior to that of the reference compound 5305, as well as compounds 1, 2, 3, 15, and 21
Cmax, comparison with AZD5305, compound 1 and compound 21 [4]: superior to those of the reference compound AZD5305, compound 1 and compound 21
Tumor inhibition rate [5, 10]: 49.77%
Tumor weight X ± SD [5, 10]: 1.09 ± 0.29 g
Tumor volume X ± SD, End [5, 10]: 739.4 ± 308.7 mm^3
Tumor volume X ± SD, Start ([5]; 0.03 mg/kg orally once daily): 275.0 ± 68.1 mm^3
Tumor inhibition rate [5, 11]: 86.73%
Tumor weight X ± SD [5, 11]: 0.29 ± 0.09 g
Tumor volume X ± SD, End [5, 11]: 228.0 ± 75.9 mm^3
Tumor volume X ± SD, Start ([5]; 0.1 mg/kg orally once daily): 274.7 ± 73.8 mm^3
tumor inhibition effect, comparison with AZD5305, compound 1 and Olaparib ([5]; 0.1 mg/kg vs same dose of AZD5305 and compound 1, vs Olaparib 100 mg/kg): superior to that of the reference compound AZD5305 and the compound 1 at the same dose, and significantly better than that of the reference drug Olaparib group (100 mg/kg)
Tumor inhibition rate [5, 12]: 95.83%
Tumor weight X ± SD [5, 12]: 0.09 ± 0.08 g
Tumor volume X ± SD, End [5, 12]: 71.0 ± 62.5 mm^3
Tumor volume X ± SD, Start ([5]; 0.3 mg/kg orally once daily): 281.9 ± 67.4 mm^3
complete tumor regression ([5]; 0.3 mg/kg, at the end of treatment): 2/6
dose dependence among low, medium and high dose groups ([5]; 0.03, 0.1, 0.3 mg/kg, P<0.001, P<0.01): significant dose-dependent differences
inhibitory effects on tumor growth compared to blank control group ([5]; 24 days, all dose groups): significant inhibitory effects on tumor growth
inhibition of tumor growth in gastric cancer PDX model ([6]; 3 mg/kg p.o. combined with carboplatin 20 mg/kg i.p.): significantly inhibit tumor growth
inhibitory effect on gastric cancer PDX model ([6]; combined with carboplatin (20 mg/kg i.p. once every 7 days), 0.3, 1, 3 mg/kg p.o.): dose-dependent inhibitory effect
therapeutic efficacy in combination with carboplatin, compared to Olaparib plus carboplatin ([7]; 1 mg/kg orally once daily + carboplatin vs Olaparib 100 mg/kg + carboplatin): better therapeutic efficacy than Olaparib
anti-tumor efficacy, monotherapy, compared to Olaparib ([7]; 0.3 and 1 mg/kg orally once daily vs Olaparib 100 mg/kg orally once daily): better anti-tumor efficacy compared to Olaparib
Body weight X ± SD, End ([8]; 0.03 mg/kg orally once daily): 21.6 ± 0.7 g
Body weight X ± SD, Start ([8]; 0.03 mg/kg orally once daily): 22.6 ± 0.7 g
Body weight X ± SD, End ([8]; 0.1 mg/kg orally once daily): 21.6 ± 0.7 g
Body weight X ± SD, Start ([8]; 0.1 mg/kg orally once daily): 22.3 ± 1.0 g
Body weight X ± SD, End ([8]; 0.3 mg/kg orally once daily): 22.0 ± 0.9 g
Body weight X ± SD, Start ([8]; 0.3 mg/kg orally once daily): 22.3 ± 0.8 g
rate of tumor regression, comparison with compounds 1 and 21 ([9]; 1 mg/kg orally once per day): faster rate of tumor regression compared to the compounds 1 and 21
tumor regression in large-volume tumors ([9]; 1 mg/kg orally once per day): complete regression of tumors
in-vivo anti-tumor efficacy, comparison with compounds 1 and 21 ([9]; 1 mg/kg, same dose): stronger in-vivo anti-tumor efficacy than compounds 1 and 21
